# Tests used:
# [1] = molecular target: human mTOR enzyme (Homo sapiens, UniProt P42345); experiment: HTRF mTOR enzyme (kinase) assay; type: biochemical; settings: rated class; 5 μM ATP, 0.2 μM GST-S6K; read-out: hMTOR IC50
# Protocol: Methods: An HTRF mTOR enzyme assay was developed to assess the compounds' inhibitory activity. The mTOR assay buffer contained 10 mM Hepes (pH 7.4), 50 mM NaCl, […] BSA, 50 mM […], 10 mM MnCl2 and 0.5 mM DTT. […] 20 ng of human mTOR enzyme (<5% pure was preincubated with the compound for 10 minutes followed by the addition of 5 μM ATP and 0.2 μM GST-S6K (Zhang et al., Protein Expression and Purification 46, pp 414-420 (2006)). The reaction was incubated for one hour at 30° C. Anti phospho p70-S6K(Thr389) (˜1.7 ng/well, anti-phospho-p70S6K-cryptate (Pho-p70S6-Kin-K cat#64CUSKAY, from Cisbio)) and anti GST-XL665 (1:1 Ratio with the substrate GST-S6K, anti GST-XL665, cat#61GSTXLB) Cisbio) were added after the reaction was stopped. The plates were read (PHERAstar, BMG) at least 2 hours after adding the anti phospho p70-S6K and the anti GST-XL665.
# IC50 DETERMINATIONS: Dose-response curves were plotted from the inhibition data generated, each in duplicate, from 8 point serial dilutions of inhibitory compounds. Concentration of compound was plotted against the HTRF em665/em590 ratio signal. To generate IC50 values, the dose-response curves were fitted to a standard sigmoidal curve and IC50 values were derived by nonlinear regression analysis.
# [2] = system: mTORC2 activity: phosphorylated AKT Ser473 (pAKT S473) in PC3 cells; experiment: mTOR target engagement assay, immunofluorescent cell-based, mTORC2 readout; settings: Homo sapiens, PC-3, 1.5 h, rated class, 90 min treatment
# Protocol: The target engagement of mTOR kinase inhibitors was evaluated using an immunofluorescent cell-based assay. In this assay, inhibition of mTORC1 activity was measured by the reduction in the level of phosphorylated 4E-BP1Thr37/46 (p4E-BP1 Thr37/46), and inhibition of mTORC2 activity was measured by the reduction of phosphorylated AKTSer473 (pAKT S473).
# PC3 cells (prostate tumor cell-line that contains a mutation in the tumor suppressor PTEN, that promotes the phosphorylation and activation of AKT and 4E-BP1) were used in the immunofluorescence assay. PC3 cells were seeded on 384 well plates (black clear bottom, Matrix #4332) overnight. PC3 cells were then treated with 40 μl of the serially diluted test compounds (in 5% fetal bovine serum, F12 medium containing 0.25% DMSO) for ninety minutes at 37° C. The test compound solution was removed, and the plates were washed gently two times with 25 μl phosphate buffered saline (PBS). The cells were fixed by adding 25 μl of Prefer reagent (from Anatech LTD, Cat#414, a glyoxal fixative for fixing proteins within a cell) for sixty minutes followed by three washes with PBS. 5% Goat serum in PBS/0.3% Triton was used to block non-specific binding (60 minutes).
# The primary antibodies targeting pAKT S473 and p4E-BP1 Thr37/46 were diluted into PBS/0.3% Triton and incubated with the cells overnight at 4° C. The antibodies targeting pAKTS473 (Cat#4085, Cell signaling) and p4E-BP1 Thr37/46 (Cat#2855, Cell signaling) were used at a 1:100 dilution. Plates were washed three times with PBS/0.1% Tween 20 before adding the secondary antibody at a 1:200 dilution. (goat anti-rabbit containing a fluorescent label, Alexa Fluor 488, Cat#A11008, Invitrogen) in PBS/0.3% Triton for 60 minutes.
# Finally, the plates were washed three times with PBS/0.1% Tween 20 and the fluorescent intensity was read using an Analyst HT from Molecular Devices. The fluorescent intensity values from the serially diluted compound treatment group were analyzed using the Xlfit 4 program ([…]) (Formula 205: Y=Bottom+(Top-Bottom)/(1+(IC50/X)^Hillslope) to generate the IC50 value. Where Top is the maximum signal without Compound (+DMSO only) and Bottom represents maximum inhibition. Y is the fluorescence at some compound concentration. The control used to determine the fluorescent intensities for 100% pAKT S473 or 100% phosphorylated p4E-BP1 Thr37/46 were measured from untreated wells that contained only DMSO, instead of test compound.
# Sequence of human mTOR enzyme (P42345 1360-2549 limits assumed): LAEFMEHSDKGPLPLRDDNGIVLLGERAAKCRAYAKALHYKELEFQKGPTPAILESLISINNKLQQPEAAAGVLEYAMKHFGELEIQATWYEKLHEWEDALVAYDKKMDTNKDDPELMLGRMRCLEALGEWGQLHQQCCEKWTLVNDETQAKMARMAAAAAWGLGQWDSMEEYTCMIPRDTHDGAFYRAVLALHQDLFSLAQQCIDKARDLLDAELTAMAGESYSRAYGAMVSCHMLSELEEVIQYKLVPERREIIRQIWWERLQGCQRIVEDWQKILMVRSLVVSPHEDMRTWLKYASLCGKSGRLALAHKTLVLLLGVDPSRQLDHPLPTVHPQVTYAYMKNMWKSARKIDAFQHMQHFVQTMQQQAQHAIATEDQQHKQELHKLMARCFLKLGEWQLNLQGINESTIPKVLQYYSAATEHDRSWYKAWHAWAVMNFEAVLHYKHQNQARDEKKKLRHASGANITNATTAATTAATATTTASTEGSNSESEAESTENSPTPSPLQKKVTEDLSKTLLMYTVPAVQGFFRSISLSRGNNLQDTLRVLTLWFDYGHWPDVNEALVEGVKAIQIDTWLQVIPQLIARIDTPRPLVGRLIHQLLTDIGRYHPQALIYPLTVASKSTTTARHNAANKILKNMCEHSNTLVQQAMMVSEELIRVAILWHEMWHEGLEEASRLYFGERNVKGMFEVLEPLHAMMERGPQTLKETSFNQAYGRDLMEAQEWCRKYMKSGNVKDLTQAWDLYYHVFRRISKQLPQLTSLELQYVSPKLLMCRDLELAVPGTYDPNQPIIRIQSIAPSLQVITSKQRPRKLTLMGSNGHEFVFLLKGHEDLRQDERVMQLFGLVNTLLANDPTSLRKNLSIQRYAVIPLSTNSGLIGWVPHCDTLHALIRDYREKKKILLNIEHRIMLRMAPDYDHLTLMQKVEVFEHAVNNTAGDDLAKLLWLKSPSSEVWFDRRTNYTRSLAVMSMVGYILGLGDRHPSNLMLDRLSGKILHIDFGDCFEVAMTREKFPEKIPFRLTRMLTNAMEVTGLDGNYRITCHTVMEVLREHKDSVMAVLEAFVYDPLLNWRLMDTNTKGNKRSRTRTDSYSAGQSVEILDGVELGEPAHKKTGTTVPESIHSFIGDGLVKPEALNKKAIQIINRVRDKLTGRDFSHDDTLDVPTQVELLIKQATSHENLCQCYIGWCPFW
IC50 [1] [nM],IC50 [2] [nM],SMILES
1 to 100,2000 to 5000,"COc1ccc(-c2ccc(-c3cnn4c(N)c(C(C)=O)c(C5CCC(O)(CO)CC5)nc34)cn2)cn1 (single isomer, unassigned) [Compound 146, 1-(7-amino-5-(4-hydroxy-4-(hydroxymethyl)-cyclohexyl)-3-(6′-methoxy-2,3′-bipyridin-5-yl)pyrazolo[1,5-a]pyrimidin-6-yl)ethanone]"
1 to 100,1000 to 2000,"CC(=O)c1c(C2CCC(O)(CO)CC2)nc2c(-c3cnn(-c4cscn4)c3)cnn2c1N (single isomer, unassigned) [Compound 152, 1-(7-amino-5-(4-hydroxy-4-(hydroxymethyl)-cyclohexyl)-3-(1-(thiazol-4-yl)-1H-pyrazol-4-yl)pyrazolo[1,5-a]pyrimidin-6-yl)ethanone]"
1 to 100,2000 to 5000,"C[C@]1(C(=O)O)CC[C@@H](c2nc3c(-c4ccc(-c5ccccc5)nc4)cnn3c(N)c2Br)CC1 [Compound 2, (1S,4S)-4-(7-amino-6-bromo-3-(6-phenylpyridin-3-yl)pyrazolo[1,5-a]pyrimidin-5-yl)-1-methylcyclohexanecarboxylic acid]"
1 to 100,1000 to 2000,"Nc1c(Br)c([C@H]2CC[C@](F)(C(=O)O)CC2)nc2c(-c3ccc(-c4ccccc4)nc3)cnn12 [Compound 3, (1S,4S)-4-(7-amino-6-bromo-3-(6-phenylpyridin-3-yl)pyrazolo[1,5-a]pyrimidin-5-yl)-1-fluorocyclohexane-carboxylic acid]"
1 to 100,100 to 1000,"Nc1c(Br)c([C@H]2CC[C@@](F)(C(=O)O)CC2)nc2c(-c3ccc(-c4ccccc4)nc3)cnn12 [Compound 4, (1R,4R)-4-(7-amino-6-bromo-3-(6-phenylpyridin-3-yl)pyrazolo[1,5-a]pyrimidin-5-yl)-1-fluorocyclohexane-carboxylic acid]"
1 to 100,100 to 1000,"COCC1(C(=O)O)CCC(c2nc3c(-c4ccc(-c5ccccc5)nc4)cnn3c(N)c2Br)CC1 (centres unmarked) [Compound 5, 4-(7-amino-6-bromo-3-(6-phenylpyridin-3-yl)pyrazolo[1,5-a]pyrimidin-5-yl)-1-(methoxymethyl)-cyclohexane-carboxylic acid]"
1 to 100,1000 to 2000,"COCC1(C(=O)O)CCC(c2nc3c(-c4cnn(-c5ccccc5)c4)cnn3c(N)c2Br)CC1 (centres unmarked) [Compound 6, 4-(7-amino-6-bromo-3-(1-phenyl-1H-pyrazol-4-yl)pyrazolo[1,5-a]pyrimidin-5-yl)-1-(methoxymethyl)-cyclohexane-carboxylic acid]"
1 to 100,1000 to 2000,"COC[C@]1(C(=O)O)CC[C@H](c2nc3c(-c4cnc5ccc(F)cc5c4)cnn3c(N)c2Br)CC1 [Compound 7, (1R,4R)-4-(7-amino-6-bromo-3-(6-fluoroquinolin-3-yl)pyrazolo[1,5-a]pyrimidin-5-yl)-1-(methoxymethyl)-cyclohexane-carboxylic acid]"
1 to 100,5000 to 15000,"COC[C@]1(C(=O)O)CC[C@@H](c2nc3c(-c4cnc5ccc(F)cc5c4)cnn3c(N)c2Br)CC1 [Compound 8, (1S,4S)-4-(7-amino-6-bromo-3-(6-fluoroquinolin-3-yl)pyrazolo[1,5-a]pyrimidin-5-yl)-1-(methoxymethyl)-cyclohexane-carboxylic acid]"
1 to 100,–,"COC[C@]1(O)CC[C@H](c2nc3c(-c4ccc(-c5ccccc5)nc4)cnn3c(N)c2Br)CC1 [Compound 163, (1R,4R)-4-(7-amino-6-bromo-3-(6-phenylpyridin-3-yl)pyrazolo[1,5-a]pyrimidin-5-yl)-1-(methoxymethyl)cyclohexanol]"
1 to 100,–,"COCC1(CO)CCC(c2nc3c(-c4cnn(-c5ccccc5)c4)cnn3c(N)c2Br)CC1 (centres unmarked) [Compound 167, (4-(7-amino-6-bromo-3-(1-phenyl-1H-pyrazol-4-yl)pyrazolo[1,5-a]pyrimidin-5-yl)-1-(methoxymethyl)-cyclohexyl)methanol]"
